Measured values as given in US20240148821A1, “PHARMACEUTICAL USE OF CYCLIC PEPTIDE COMPOUND” (CHUGAI SEIYAKU KABUSHIKI KAISHA, priority 2021, published 2024).
Numbered stars: 1 amine (or outer) side, 2 acyl side, 3 side chain; on linkers, the order of the positions; unused ones are H or OH. Bridge positions count the residues as written; N and C are the ends. Square brackets hold non-standard residues; d marks the D form. Peptide text beside a SMILES is read from it. * marks the point of attachment. hPhe(3-Cl-4-CF3) = N[C@@H](CCc1ccc(C(F)(F)F)c(Cl)c1)C(=O)O; hPhe(3-F,4-CF3) = N[C@@H](CCc1ccc(C(F)(F)F)c(F)c1)C(=O)O; NMePhe(4-CF3) = CN[C@@H](Cc1ccc(C(F)(F)F)cc1)C(=O)O; NEtPhe(4-Me) = CCN[C@@H](Cc1ccc(C)cc1)C(=O)O; NMePhe(4-Cl) = CN[C@@H](Cc1ccc(Cl)cc1)C(=O)O; NMedβ3hAla = C[C@H](CC(=O)[*:2])N(C)[*:1]; NMeGly(cPent) = CN[C@H](C(=O)O)C1CCCC1; Met(O2) = CS(=O)(=O)CC[C@H](N)C(=O)O; NMe3Pal = CN[C@@H](Cc1cccnc1)C(=O)O; NMeCha = CN[C@@H](CC1CCCCC1)C(=O)O; NMehLeu = CN[C@@H](CCC(C)C)C(=O)O; Hyp = O=C(O)[C@@H]1C[C@@H](O)CN1; NMeAhp(2) = CCCCC[C@H](NC)C(=O)O; NMeChg = CN[C@H](C(=O)O)C1CCCCC1; NMeI = CC[C@H](C)[C@H](NC)C(=O)O; N(CH2CH2)2CF2 = FC1(F)CCN(*)CC1; X17 = FC1(F)CN(*)CC(F)(F)C1(F)F; NMeD = CN[C@@H](CC(=O)O)C(=O)O; NMeL = CN[C@@H](CC(C)C)C(=O)O; NMeV = CN[C@H](C(=O)O)C(C)C; NMeC = CN[C@@H](CS)C(=O)O; Morpholide = C1CN(*)CCO1; NMeA = CN[C@@H](C)C(=O)O; Piperidide = C1CCN(*)CC1; Pyrrolidide = C1CCN(*)C1; Ac5c = NC1(C(=O)O)CCCC1; Aze = O=C(O)[C@@H]1CCN1; Ac4c = NC1(C(=O)O)CCC1; Sar = CNCC(=O)O

Tests used:
[1] = target: protein-protein interaction between Kras and SOS1 (biotin-tagged human Kras loaded with GDP, His-tagged human SOS1) (Homo sapiens (Human), UniProt P01116, G12D); test: Protein-protein interaction inhibition between Kras and SOS1 (KrasG12D-SOS PPI) using AlphaScreen; format: biochemical; conditions: AlphaScreen; biotin-tagged human Kras loaded with GDP, His-tagged human SOS1; read-out: KRAS G12D-SOS PPI IC50;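 further: kras produced in E. coli, Ni-coupled donor beads and streptavidin acceptor beads, excitation 680 nm with emission detected at 520–620 nm via singlet oxygen transfer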
[2] = tested on: Human pancreatic cancer cell line AsPC-1 (G12D mutation Kras); test: AsPC-1 cell growth inhibition (AsPC-1 CGI); format: cell-based; conditions: read-out: AsPC-1 cell growth inhibition, 50% growth inhibitory concentration (IC50 value); 96 hours, CellTiter-Glo, values classified in ranges

CC[C@H](C)[C@@H]1NC(=O)[C@H](CC(C)C)N(C)C(=O)C[C@@H](C(=O)N2CCCCC2)N(C)C(=O)[C@H](CC2CCCCC2)N(C)C(=O)C2(CCCC2)NC(=O)[C@@H]2CCCN2C(=O)[C@H](CCc2ccc(C(F)(F)F)c(Cl)c2)NC(=O)CN(C)C(=O)[C@H](CC2CCCCC2)N(C)C(=O)[C@@H]2CCN2C(=O)[C@H](C)N(C)C1=O [Compound 87] ([NMeL]I[NMeA][Aze][NMeCha][Sar][hPhe(3-Cl-4-CF3)]P[Ac5c][NMeCha][NMeD]-Piperidide; lactam N-11)
IC50 [1]: 45 nM
IC50 [2]: > 500 nM

CC[C@H](C)[C@@H]1NC(=O)[C@H](CCC(C)C)N(C)C(=O)C[C@@H](C(=O)N2CCOCC2)N(C)C(=O)[C@H]([C@@H](C)CC)N(C)C(=O)C2(CCCC2)NC(=O)[C@@H]2CCCN2C(=O)[C@H](CCc2ccc(C(F)(F)F)c(Cl)c2)NC(=O)CN(C)C(=O)[C@H](Cc2ccc(C(F)(F)F)cc2)N(C)C(=O)[C@@H]2CCN2C(=O)[C@H](C)NC1=O [Compound 1356] ([NMehLeu]IA[Aze][NMePhe(4-CF3)][Sar][hPhe(3-Cl-4-CF3)]P[Ac5c][NMeI][NMeD]-Morpholide; lactam N-11)
IC50 [1]: 1.1 nM
IC50 [2]: ≤ 20 nM

CCO[C@@H]1C[C@H]2C(=O)NC3(CCC3)C(=O)N(C)[C@@H](C3CCCCC3)C(=O)N(C)[C@H](C(=O)N3CCCC3)CC(=O)N(C)[C@@H](CC(C)C)C(=O)N[C@@H]([C@@H](C)CC)C(=O)N(C)CC(=O)N(C)CC(=O)N(C)[C@@H](CC3CCCCC3)C(=O)N(C)CC(=O)N[C@@H](CCc3ccc(C(F)(F)F)c(Cl)c3)C(=O)N2C1 [Compound 1241] ([NMeL]I[Sar][Sar][NMeCha][Sar][hPhe(3-Cl-4-CF3)][Hyp](Et)[Ac4c][NMeChg][NMeD]-Pyrrolidide; lactam N-11)
IC50 [1]: 0.5 nM
IC50 [2]: ≤ 20 nM

CC(C)C[C@H]1C(=O)N[C@@H](CCS(C)(=O)=O)C(=O)N(C)[C@@H](C)C(=O)N2CC[C@H]2C(=O)N(C)[C@@H](CC2CCCCC2)C(=O)N(C)CC(=O)N[C@@H](CCc2ccc(C(F)(F)F)c(Cl)c2)C(=O)N2CCC[C@H]2C(=O)NC2(CCCC2)C(=O)N(C)[C@@H](C(C)C)C(=O)N(C)[C@H](C(=O)N2CCCCC2)CC(=O)N1C [Compound 174] ([NMeL][Met(O2)][NMeA][Aze][NMeCha][Sar][hPhe(3-Cl-4-CF3)]P[Ac5c][NMeV][NMeD]-Piperidide; lactam N-11)
IC50 [1]: 57 nM
IC50 [2]: > 500 nM

CC[C@H](C)[C@@H]1NC(=O)[C@H](C)N(C)C(=O)C[C@@H](C(=O)N2CCCCC2)N(C)C(=O)[C@H](C(C)C)N(C)C(=O)C2(CCCC2)NC(=O)[C@H](Cc2cccnc2)N(C)C(=O)[C@H](CCc2ccc(C(F)(F)F)c(Cl)c2)NC(=O)CN(C)C(=O)[C@H](CC2CCCCC2)N(C)C(=O)CN(C)C(=O)CN(C)C1=O [Compound 519] ([NMeA]I[Sar][Sar][NMeCha][Sar][hPhe(3-Cl-4-CF3)][NMe3Pal][Ac5c][NMeV][NMeD]-Piperidide; lactam N-11)
IC50 [1]: 2 nM
IC50 [2]: > 500 nM

CCCCC[C@H]1C(=O)N[C@@H]([C@@H](C)CC)C(=O)N[C@@H](C)C(=O)N2CC[C@H]2C(=O)N(C)[C@@H](CC2CCCCC2)C(=O)N(C)CC(=O)N[C@@H](CCc2ccc(C(F)(F)F)c(F)c2)C(=O)N2CCC[C@H]2C(=O)NC2(CCCC2)C(=O)N(C)[C@@H](C2CCCC2)C(=O)N(C)[C@H](C(=O)N(C)C)CC(=O)N1C [Compound 1117] ([NMeAhp(2)]IA[Aze][NMeCha][Sar][hPhe(3-F,4-CF3)]P[Ac5c][NMeGly(cPent)][NMeD]-NMe2; lactam N-11)
IC50 [1]: 2.2 nM
IC50 [2]: ≤ 20 nM

CC[C@H](C)[C@@H]1NC(=O)[C@H](CC(C)C)N(C)C(=O)CSC[C@@H](C(=O)N(C)C)N(C)C(=O)[C@H](C2CCCC2)N(C)C(=O)C2(CCCC2)NC(=O)[C@@H]2CCCN2C(=O)[C@H](CCc2ccc(C(F)(F)F)c(F)c2)NC(=O)CN(C)C(=O)[C@H](C2CCCC2)N(C)C(=O)[C@@H]2CCN2C(=O)[C@H](C)N(C)C1=O [Compound 2179] ({CH2CO}-[NMeL]I[NMeA][Aze][NMeGly(cPent)][Sar][hPhe(3-F,4-CF3)]P[Ac5c][NMeGly(cPent)][NMeC]-NMe2; thioether N-11)
IC50 [1]: 540 nM
IC50 [2]: > 500 nM

CC[C@H](C)[C@@H]1NC(=O)[C@H](CC(C)C)N(C)C(=O)C[C@@H](C)N(C)C(=O)[C@H](C2CCCC2)N(C)C(=O)C2(CCCC2)NC(=O)[C@@H]2CCCN2C(=O)[C@H](CCc2ccc(C(F)(F)F)c(Cl)c2)NC(=O)CN(C)C(=O)[C@H](Cc2ccc(C(F)(F)F)cc2)N(C)C(=O)[C@@H]2CCN2C(=O)[C@H](C)N(C)C1=O [Compound 587] (cyclo([Ac5c][NMeGly(cPent)][NMedβ3hAla][NMeL]I[NMeA][Aze][NMePhe(4-CF3)][Sar][hPhe(3-Cl-4-CF3)]P))
IC50 [1]: 1.2 nM
IC50 [2]: ≤ 20 nM

CC[C@H](C)[C@@H]1NC(=O)[C@H](CC(C)C)N(C)C(=O)C[C@@H](C(=O)N2CCCCC2)N(C)C(=O)[C@H](C2CCCC2)N(C)C(=O)C2(CCCC2)NC(=O)[C@@H]2CCCN2C(=O)[C@H](CCc2ccc(C(F)(F)F)c(Cl)c2)NC(=O)CN(C)C(=O)[C@H](CC2CCCCC2)N(C)C(=O)[C@@H]2CCN2C(=O)[C@H](C)N(C)C1=O [Compound 1787] ([NMeL]I[NMeA][Aze][NMeCha][Sar][hPhe(3-Cl-4-CF3)]P[Ac5c][NMeGly(cPent)][NMeD]-Piperidide; lactam N-11)
IC50 [1]: 1.1 nM
IC50 [2]: ≤ 20 nM

CC[C@H](C)[C@@H]1NC(=O)[C@H](CC(C)C)N(C)C(=O)C[C@@H](C(=O)N(C)C)N(C)C(=O)[C@H]([C@@H](C)CC)N(C)C(=O)C2(CCCC2)NC(=O)[C@@H]2CCCN2C(=O)[C@H](CCc2ccc(C(F)(F)F)c(F)c2)NC(=O)CN(C)C(=O)[C@H](C2CCCC2)N(C)C(=O)[C@@H]2CCN2C(=O)[C@H](C)N(C)C1=O [Compound 555] ([NMeL]I[NMeA][Aze][NMeGly(cPent)][Sar][hPhe(3-F,4-CF3)]P[Ac5c][NMeI][NMeD]-NMe2; lactam N-11)
IC50 [1]: 2.6 nM
IC50 [2]: ≤ 20 nM

CC[C@H](C)[C@@H]1NC(=O)[C@H](CC(C)C)N(C)C(=O)C[C@@H](C(=O)N(C)C)N(C)C(=O)[C@H](C2CCCC2)N(C)C(=O)[C@H](C(C)C)NC(=O)[C@@H]2CCCN2C(=O)[C@H](CCc2ccc(C(F)(F)F)c(Cl)c2)NC(=O)CN(C)C(=O)[C@H](CC2CCCCC2)N(C)C(=O)[C@@H]2CCN2C(=O)[C@H](C)N(C)C1=O [Compound 1010] ([NMeL]I[NMeA][Aze][NMeCha][Sar][hPhe(3-Cl-4-CF3)]PV[NMeGly(cPent)][NMeD]-NMe2; lactam N-11)
IC50 [1]: 4.3 nM
IC50 [2]: > 500 nM

CC[C@H](C)[C@@H]1NC(=O)[C@H](CC(C)C)N(C)C(=O)C[C@@H](C(=O)N2CC(F)(F)C(F)(F)C(F)(F)C2)N(C)C(=O)[C@H](C2CCCCC2)N(C)C(=O)C2(CCCC2)NC(=O)[C@@H]2CCCN2C(=O)[C@H](CCc2ccc(C(F)(F)F)c(Cl)c2)NC(=O)CN(C)C(=O)[C@H](CC2CCCCC2)N(C)C(=O)CN(C)C(=O)CN(C)C1=O [Compound 1229] ([NMeL]I[Sar][Sar][NMeCha][Sar][hPhe(3-Cl-4-CF3)]P[Ac5c][NMeChg][NMeD]-X17; lactam N-11)
IC50 [1]: 46 nM
IC50 [2]: > 500 nM

CC[C@H](C)[C@@H]1NC(=O)[C@H](CC(C)C)N(C)C(=O)C[C@@H](C(=O)N(C)C)N(C)C(=O)[C@H](C2CCCC2)N(C)C(=O)C2(CCCC2)NC(=O)[C@@H]2CCCN2C(=O)[C@H](CCc2ccc(C(F)(F)F)c(Cl)c2)NC(=O)CN(C)C(=O)[C@H](Cc2ccc(C)cc2)N(CC)C(=O)[C@@H]2CCN2C(=O)[C@H](C)N(C)C1=O [Compound 279] ([NMeL]I[NMeA][Aze][NEtPhe(4-Me)][Sar][hPhe(3-Cl-4-CF3)]P[Ac5c][NMeGly(cPent)][NMeD]-NMe2; lactam N-11)
IC50 [1]: 0.99 nM
IC50 [2]: ≤ 20 nM

CC[C@H](C)[C@@H]1NC(=O)[C@H](CC(C)C)N(C)C(=O)C[C@@H](C(=O)N(C)C)NC(=O)[C@H](C(C)C)N(C)C(=O)C2(CCCC2)NC(=O)[C@H](CC(=O)N2CCC(F)(F)CC2)N(C)C(=O)[C@H](CCc2ccc(C(F)(F)F)c(Cl)c2)NC(=O)CN(C)C(=O)[C@H](CC2CCCCC2)N(C)C(=O)CN(C)C(=O)CN(C)C1=O [Compound 97] ([NMeL]I[Sar][Sar][NMeCha][Sar][hPhe(3-Cl-4-CF3)][NMeD](N(CH2CH2)2CF2)[Ac5c][NMeV]D-NMe2; lactam N-11)
IC50 [1]: 40 nM
IC50 [2]: > 500 nM

CC[C@H](C)[C@@H]1NC(=O)[C@H](C)N(C)C(=O)C[C@@H](C(=O)N2CCCCC2)N(C)C(=O)[C@H](C(C)C)N(C)C(=O)C2(CCCC2)NC(=O)[C@H](Cc2ccc(Cl)cc2)N(C)C(=O)[C@H](CCc2ccc(C(F)(F)F)c(Cl)c2)NC(=O)CN(C)C(=O)[C@H](CC2CCCCC2)N(C)C(=O)CN(C)C(=O)CN(C)C1=O [Compound 718] ([NMeA]I[Sar][Sar][NMeCha][Sar][hPhe(3-Cl-4-CF3)][NMePhe(4-Cl)][Ac5c][NMeV][NMeD]-Piperidide; lactam N-11)
IC50 [1]: 39 nM
IC50 [2]: > 500 nM

CC[C@H](C)[C@@H]1NC(=O)[C@H](CC(C)C)N(C)C(=O)C[C@@H](C(=O)N2CCOCC2)NC(=O)[C@H](C(C)C)N(C)C(=O)C2(CCCC2)NC(=O)[C@@H]2CCCN2C(=O)[C@H](CCc2ccc(C(F)(F)F)c(Cl)c2)NC(=O)CN(C)C(=O)[C@H](CC2CCCCC2)N(C)C(=O)[C@@H]2CCN2C(=O)[C@H](C)N(C)C1=O [Compound 1200] ([NMeL]I[NMeA][Aze][NMeCha][Sar][hPhe(3-Cl-4-CF3)]P[Ac5c][NMeV]D-Morpholide; lactam N-11)
IC50 [1]: 45 nM
IC50 [2]: > 500 nM
